According to patent publication US9458198B1, “Cyclic peptide-based NPR-B agonists” (priority 2009, dated 2016):
Read-outs that look alike come from different tables or passages of the source. Where a SMILES comes first, the peptide text is derived from it. Bridges are numbered along the chain shown (N, C = ends).

Target: T1, NPR-B (Homo sapiens, UniProt P20594)
T1 construct: a functional assay using endogenously NPR-B expressing GTM-3 cells; endogenous in cells; host or cells: GTM-3 (transformed human trabecular meshwork cells)
T1 sequence (P20594 23-1047): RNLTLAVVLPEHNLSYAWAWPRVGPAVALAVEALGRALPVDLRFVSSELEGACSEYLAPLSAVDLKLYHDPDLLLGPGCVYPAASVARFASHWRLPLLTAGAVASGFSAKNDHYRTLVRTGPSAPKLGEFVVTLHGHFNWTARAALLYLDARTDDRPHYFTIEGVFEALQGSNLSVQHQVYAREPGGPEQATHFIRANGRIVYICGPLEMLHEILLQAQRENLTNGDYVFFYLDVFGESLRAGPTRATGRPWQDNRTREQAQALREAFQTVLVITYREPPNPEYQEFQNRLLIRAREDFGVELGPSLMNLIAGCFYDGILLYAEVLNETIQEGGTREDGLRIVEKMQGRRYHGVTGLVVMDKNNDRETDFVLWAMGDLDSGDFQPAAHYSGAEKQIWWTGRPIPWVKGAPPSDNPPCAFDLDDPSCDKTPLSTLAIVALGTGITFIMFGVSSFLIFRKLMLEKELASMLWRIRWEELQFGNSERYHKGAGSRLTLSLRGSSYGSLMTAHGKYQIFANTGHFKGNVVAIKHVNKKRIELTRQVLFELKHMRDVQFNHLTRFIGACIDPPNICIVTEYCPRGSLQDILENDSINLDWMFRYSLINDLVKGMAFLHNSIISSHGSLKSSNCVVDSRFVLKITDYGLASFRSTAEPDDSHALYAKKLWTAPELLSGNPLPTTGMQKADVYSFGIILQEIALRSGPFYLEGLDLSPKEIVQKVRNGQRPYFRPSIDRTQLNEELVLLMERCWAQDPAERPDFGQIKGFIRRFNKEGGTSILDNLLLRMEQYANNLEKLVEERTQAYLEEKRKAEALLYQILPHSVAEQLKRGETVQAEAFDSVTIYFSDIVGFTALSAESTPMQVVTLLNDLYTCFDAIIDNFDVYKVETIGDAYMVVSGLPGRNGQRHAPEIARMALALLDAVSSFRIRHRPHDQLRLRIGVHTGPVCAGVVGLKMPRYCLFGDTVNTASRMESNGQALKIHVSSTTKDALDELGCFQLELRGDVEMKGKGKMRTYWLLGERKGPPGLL
Experiment: NPR-B induced production of cyclic GMP in GTM-3 cells
Format: cell-based
Details: GTM-3 cells, group needs both EC50 and Emax criteria, checked A then B then C
Description: The efficacy and potency of compounds to activate NPR-B were evaluated in a functional assay using endogenously NPR-B expressing GTM-3 cells (Pang et al. 1994, Curr Eye Res 13:51-63). In this assay the dose dependent production of cyclic GMP (cGMP) is determined and Emax (maximum activation) and EC50 values are calculated.
The cell culture medium is aspirated and each well is washed with 200 μl DMEM/Ham's F12=Medium (Gibco). Then, 200 μl Medium supplemented with 1 mM IBMX (3-Isobutyl-1-methyl-xanthin, Sigma) is added to each well and incubated for 15 min. at room temperature.
Final compound concentrations are in the range from 45 μM to 20 nM.

[1] = read-out: Activity (group): NPR-B activation, EC50 and Emax (CNP = 100%)

Row | SMILES | EC50 [1] [µM] | EC50 (Activity (group): NPR-B activation, EC50 and Emax (CNP = 100%)) [µM]
1 | CC[C@H](C)[C@@H]1NC(=O)[C@H](CCCNC(=N)N)NC(=O)[C@H](CC(=O)O)NC(=O)[C@H](CC(C)C)NC(=O)[C@H](CCCCN)NC(=O)[C@H](CC(C)C)NC(=O)CNC(=O)[C@H](Cc2ccccc2)NC(=O)[C@H](C)NC(=O)[C@@H](NC(=O)[C@@H](N)CCSC)CSSC[C@@H](C(N)=O)NC(=O)[C@H](CO)NC1=O [compound 8] | < 5 | 
2 | CC[C@H](C)[C@@H]1NC(=O)[C@H](CCCNC(=N)N)NC(=O)[C@H](CC(=O)O)NC(=O)[C@H](CC(C)C)NC(=O)[C@H](CCCCN)NC(=O)[C@H](C)NC(=O)CNC(=O)[C@H](Cc2ccccc2)NC(=O)[C@H](Cc2c[nH]cn2)NC(=O)[C@@H](NC(=O)[C@@H](N)CCSC)CSSC[C@@H](C(N)=O)NC(=O)[C@H](CO)NC1=O [compound 9] (H-MCHFGAKLDRISC-NH2; disulfide 2-13) | < 15 | 
3 | CC[C@H](C)[C@@H]1NC(=O)[C@H](CCCNC(=N)N)NC(=O)[C@H](CC(=O)O)NC(=O)[C@H](CC(C)C)NC(=O)[C@H](CCCCN)NC(=O)[C@H](CC(C)C)NC(=O)CNC(=O)[C@H](Cc2ccccc2)NC(=O)[C@H](Cc2c[nH]cn2)NC(=O)[C@H](NC(=O)[C@@H](N)CCSC)CSSC[C@@H](C(N)=O)NC(=O)[C@H](CO)NC1=O [compound 11] | < 15 | 
4 | CC[C@H](C)[C@@H]1NC(=O)[C@H](CCCNC(=N)N)NC(=O)[C@H](CC(=O)O)NC(=O)[C@H](CC(C)C)NC(=O)[C@H](CCCCN)NC(=O)[C@H](CC(C)C)NC(=O)CNC(=O)[C@H](Cc2ccccc2)NC(=O)[C@H](Cc2c[nH]cn2)NC(=O)[C@H](NC(=O)[C@@H](N)CCSC)CSSC[C@H](C(N)=O)NC(=O)[C@H](CO)NC1=O [compound 13] | < 15 | 
5 | CC[C@H](C)[C@@H]1NC(=O)[C@H](CCCNC(=N)N)NC(=O)[C@H](CC(=O)O)NC(=O)[C@H](CC(C)C)NC(=O)[C@H](CCCCN)NC(=O)[C@H](CC(C)C)NC(=O)CNC(=O)[C@H](Cc2ccccc2)NC(=O)[C@H](Cc2c[nH]cn2)NC(=O)[C@@H](NC(=O)[C@@H](N)CCSC)CSSC[C@@H](C(=O)O)NC(=O)[C@H](CO)NC1=O [compound 15] | < 15 | 
6 | CC[C@H](C)[C@@H]1NC(=O)[C@H](CCCNC(=N)N)NC(=O)[C@H](CC(=O)O)NC(=O)[C@H](CC(C)C)NC(=O)[C@H](CCCCN)NC(=O)[C@H](CC(C)C)NC(=O)CNC(=O)[C@H](Cc2ccccc2)NC(=O)CNC(=O)[C@@H](NC(=O)[C@@H](N)CCSC)CSSC[C@@H](C(N)=O)NC(=O)[C@H](CO)NC1=O [compound 17] | < 5 | 
7 | CC[C@H](C)[C@@H]1NC(=O)[C@H](CCCNC(=N)N)NC(=O)[C@H](CC(=O)O)NC(=O)[C@H](CC(C)C)NC(=O)[C@H](CCCCN)NC(=O)[C@H](CC(C)C)NC(=O)CNC(=O)[C@H](Cc2ccccc2)NC(=O)[C@H](CO)NC(=O)[C@@H](NC(=O)[C@@H](N)CCSC)CSSC[C@@H](C(N)=O)NC(=O)[C@H](CO)NC1=O [compound 18] | < 5 | 
8 | CC[C@H](C)[C@@H]1NC(=O)[C@H](CCCNC(=N)N)NC(=O)[C@H](CC(=O)O)NC(=O)[C@H](CC(C)C)NC(=O)[C@H](CCCCN)NC(=O)[C@H](CC(=O)O)NC(=O)CNC(=O)[C@H](Cc2ccccc2)NC(=O)[C@H](Cc2c[nH]cn2)NC(=O)[C@@H](NC(=O)[C@@H](N)CCSC)CSSC[C@@H](C(N)=O)NC(=O)[C@H](CO)NC1=O [compound 19] (H-MCHFGDKLDRISC-NH2; disulfide 2-13) | < 5 | 
9 | CC[C@H](C)[C@@H]1NC(=O)[C@H](CCCNC(=N)N)NC(=O)[C@H](CC(=O)O)NC(=O)[C@H](CC(C)C)NC(=O)[C@H](CCCCN)NC(=O)[C@H](Cc2c[nH]cn2)NC(=O)CNC(=O)[C@H](Cc2ccccc2)NC(=O)[C@H](Cc2c[nH]cn2)NC(=O)[C@@H](NC(=O)[C@@H](N)CCSC)CSSC[C@@H](C(N)=O)NC(=O)[C@H](CO)NC1=O [compound 20] (H-MCHFGHKLDRISC-NH2; disulfide 2-13) |  | < 5
10 | CC[C@H](C)[C@@H]1NC(=O)[C@H](CCCNC(=N)N)NC(=O)[C@H](CC(=O)O)NC(=O)[C@H](CC(C)C)NC(=O)[C@H](CCCCN)NC(=O)[C@H](CC(C)C)NC(=O)CNC(=O)[C@H](Cc2ccccc2)NC(=O)[C@H](Cc2c[nH]cn2)NC(=O)[C@@H](NC(=O)[C@@H](N)CCSC)CSSC[C@@H](C(=O)N[C@@H](Cc2c[nH]c3ccccc23)C(=O)N[C@@H](CCCNC(=N)N)C(N)=O)NC(=O)[C@H](CO)NC1=O [compound 21] (H-MCHFGLKLDRISCWR-NH2; disulfide 2-13) | < 15 | 

Continued, in another order:

Row | EC50 [1] [µM] | SMILES | EC50 (Activity (group): NPR-B activation, EC50 and Emax (CNP = 100%)) [µM]
11 | < 5 | CC[C@H](C)[C@@H]1NC(=O)[C@H](CCCNC(=N)N)NC(=O)[C@H](CC(=O)O)NC(=O)[C@H](CC(C)C)NC(=O)[C@H](CCCCN)NC(=O)[C@H](CC(C)C)NC(=O)CNC(=O)[C@H](Cc2ccccc2)NC(=O)[C@H](Cc2c[nH]cn2)NC(=O)[C@@H](NC(=O)[C@@H](N)CCSC)CSSC[C@@H](C(=O)N[C@@H](Cc2ccc(O)cc2)C(=O)N[C@@H](CCCNC(=N)N)C(N)=O)NC(=O)[C@H](CO)NC1=O [compound 5] (H-MCHFGLKLDRISCYR-NH2; disulfide 2-13) | 
12 | < 5 | CC[C@H](C)[C@@H]1NC(=O)[C@H](CCCNC(=N)N)NC(=O)[C@H](CC(=O)O)NC(=O)[C@H](CC(C)C)NC(=O)[C@H](CCCCN)NC(=O)[C@H](CC(C)C)NC(=O)CNC(=O)[C@H](Cc2ccccc2)NC(=O)[C@H](Cc2c[nH]cn2)NC(=O)[C@@H](NC(=O)[C@@H](N)CCSC)CSSC[C@@H](C(=O)N[C@@H](Cc2ccc(O)cc2)C(N)=O)NC(=O)[C@H](CO)NC1=O [compound 6] (H-MCHFGLKLDRISCY-NH2; disulfide 2-13) | 
13 | < 5 | CC[C@H](C)[C@@H]1NC(=O)[C@H](CCCNC(=N)N)NC(=O)[C@H](CC(=O)O)NC(=O)[C@H](CC(C)C)NC(=O)[C@H](CCCCN)NC(=O)[C@H](CC(C)C)NC(=O)CNC(=O)[C@H](Cc2ccccc2)NC(=O)[C@H](Cc2c[nH]cn2)NC(=O)[C@@H](NC(=O)[C@@H](N)CCSC)CSSC[C@@H](C(N)=O)NC(=O)[C@H](CO)NC1=O [compound 7] | 
14 | < 5 | CC[C@H](C)[C@@H]1NC(=O)[C@H](CCCNC(=N)N)NC(=O)[C@H](CC(=O)O)NC(=O)[C@H](CC(C)C)NC(=O)[C@H](CCCCN)NC(=O)[C@H](CC(C)C)NC(=O)CNC(=O)[C@H](Cc2ccccc2)NC(=O)[C@H](Cc2c[nH]cn2)NC(=O)[C@@H](NC(=O)[C@H](N)CCSC)CSSC[C@@H](C(N)=O)NC(=O)[C@H](CO)NC1=O [compound 10] | 
15 | < 5 | CC[C@H](C)[C@@H]1NC(=O)[C@H](CCCNC(=N)N)NC(=O)[C@H](CC(=O)O)NC(=O)[C@H](CC(C)C)NC(=O)[C@H](CCCCN)NC(=O)[C@H](CC(C)C)NC(=O)CNC(=O)[C@H](Cc2ccccc2)NC(=O)[C@@H](Cc2c[nH]cn2)NC(=O)[C@@H](NC(=O)[C@@H](N)CCSC)CSSC[C@@H](C(N)=O)NC(=O)[C@H](CO)NC1=O [compound 12] | 
16 | < 15 | CCCC[C@H](N)C(=O)N[C@H]1CSSC[C@@H](C(N)=O)NC(=O)[C@H](CO)NC(=O)[C@H]([C@@H](C)CC)NC(=O)[C@H](CCCNC(=N)N)NC(=O)[C@H](CC(=O)O)NC(=O)[C@H](CC(C)C)NC(=O)[C@H](CCCCN)NC(=O)[C@H](CC(C)C)NC(=O)CNC(=O)[C@H](Cc2ccccc2)NC(=O)[C@H](Cc2c[nH]cn2)NC1=O [compound 16] | 
17 | < 5 | CC[C@H](C)[C@@H]1NC(=O)[C@H](CCCNC(=N)N)NC(=O)[C@H](CC(=O)O)NC(=O)[C@H](CC(C)C)NC(=O)[C@H](CCCCN)NC(=O)[C@H](CC(C)C)NC(=O)CNC(=O)[C@H](Cc2ccccc2)NC(=O)[C@H](Cc2c[nH]cn2)NC(=O)[C@@H](NC(=O)[C@@H](N)CCSC)CSSC[C@@H](C(=O)N[C@@H](CC(N)=O)C(=O)N[C@@H](CCCNC(=N)N)C(N)=O)NC(=O)[C@H](CO)NC1=O [compound 22] (H-MCHFGLKLDRISCNR-NH2; disulfide 2-13) | 
